From patent publication US20220192195A1, “HERBICIDAL COMPOSITIONS” (SYNGENTA CROP PROTECTION AG, priority 2019, published 2022)

Columns and labels:
Test in all cases: Post-emergence efficacy (B1), compounds of Formula (I) alone, evaluated after 13 days
Type in all cases: in vivo
Eleusine indica (ELEIN) = settings: 500 g/Ha, post-emergence spray
Experimental: (§1) Seeds of a variety of test species were sown in standard laom-based soil in pots: Ipomoea hederacea (IPOHE), Euphorbia heterophylla (EPHHL), Chenopodium album (CHEAL), Amaranthus palmeri (AMAPA), Lolium perenne (LOLPE), Digitaria sanguinalis (DIGSA), Eleusine indica (ELEIN), Echinochloa crus-galli (ECHCG), Setaria faberi (SETFA). After cultivation for 14 days (post-emergence) under controlled conditions in a glasshouse (at 24/16° C., day/night; 14 hours light; 65% humidity), the plants were sprayed with an aqueous spray solution derived from the dissolution of the technical active ingredient Formula (I) in a small amount of acetone and a special solvent and emulsifier mixture referred to as IF50 (11.12% Emulsogen EL360 TM+44.44% N-methylpyrrolidone+44.44% Dowanol DPM glycol ether), to create a 50 g/I solution which was then diluted to required concentration using 0.25% or 1% Empicol ESC70 (Sodium lauryl ether sulphate)+1% ammonium sulphate as diluent. The delivery of the aqueous spray solution was via a laboratory track sprayer which delivered the aqueous spray composition at a rate of 200 litres per hectare, using a flat fan nozzle (Teejet 11002VS) and an application volume of 200 litre/ha (at 2 bar).
(§2) The test plants were then grown in a glasshouse under controlled conditions (at 24/16° C., day/night; 14 hours light; 65% humidity) and watered twice daily. After 13 days the test was evaluated (100=total damage to plant; 0=no damage to plant).

[1] = test system: Chenopodium album (CHEAL); settings: 500 g/Ha, post-emergence spray
Experimental: as §1, §2

[2] = test system: Euphorbia heterophylla (EPHHL); settings: 500 g/Ha, post-emergence spray
Experimental: as §1, §2

[3] = test system: Amaranthus palmeri (AMAPA); settings: 500 g/Ha, post-emergence spray
Experimental: as §1, §2

Setaria faberi (SETFA) = settings: 312 h, post-emergence spray, read-out: Control of weed species after post-emergence application: SETFA (100=total damage to plant; 0=no damage to plant)
Experimental: as §1, §2

[4] = test system: Ipomoea hederacea (IPOHE); settings: 312 h, post-emergence spray, read-out: Control of weed species after post-emergence application: IPOHE (100=total damage to plant; 0=no damage to plant)
Experimental: as §1, §2

[5] = test system: Digitaria sanguinalis (DIGSA); settings: 312 h, post-emergence spray, read-out: Control of weed species after post-emergence application: DIGSA (100=total damage to plant; 0=no damage to plant)
Experimental: as §1, §2

[6] = test system: Echinochloa crus-galli (ECHCG); settings: 312 h, post-emergence spray, read-out: Control of weed species after post-emergence application: ECHCG (100=total damage to plant; 0=no damage to plant)
Experimental: as §1, §2

Lolium perenne (LOLPE) = settings: 312 h, post-emergence spray, read-out: Control of weed species after post-emergence application: LOLPE (100=total damage to plant; 0=no damage to plant)
Experimental: as §1, §2

SMILES | Control of weed species after post-emergence application: ELEIN (100=total damage to plant; 0=no damage to plant) (Eleusine indica (ELEIN)) | Control of weed species after post-emergence application: CHEAL (100=total damage to plant; 0=no damage to plant) [1] | Control of weed species after post-emergence application: EPHHL (100=total damage to plant; 0=no damage to plant) [2] | Control of weed species after post-emergence application: AMAPA (100=total damage to plant; 0=no damage to plant) [3] | pest or weed control at 500 g/ha (Setaria faberi (SETFA)) | pest or weed control at 500 g/ha [4] | pest or weed control at 500 g/ha [5] | pest or weed control at 500 g/ha [6] | pest or weed control at 500 g/ha (Lolium perenne (LOLPE))
N[C@H](CC[n+]1ccc(-c2ncccn2)cn1)C(=O)O.O=C(O)C(F)(F)F.O=C([O-])C(F)(F)F [Compound 1.029, [(1R)-1-carboxy-3-(4-pyrimidin-2-ylpyridazin-1-ium-1-yl)propyl]-ammonium 2,2,2-trifluoroacetate] | 100 | 100 | 90 | 100 |  |  |  |  | 
N[C@@H](CC[n+]1ccc(-c2ncccn2)cn1)C(=O)O.O=C(O)C(F)(F)F.O=C([O-])C(F)(F)F [Compound 1.035, [(1S)-1-carboxy-3-(4-pyrimidin-2-ylpyridazin-1-ium-1-yl)propyl]-ammonium 2,2,2-trifluoroacetate] | 100 | 100 | 90 | 100 | 100% | 90% | 90% | 60% | 20%
